Laboratory results published in ChEMBL document CHEMBL5727817, “3′ end caps, 5′ end caps and combinations thereof for therapeutic RNA” (2020).

Test: thermodynamic (Steady State Affinity) binding analysis: A subset of compounds was further characterized to determine dissociation constants using thermodynamic (Steady State Affinity) binding analysis.

Row | SMILES | Kd [nM]
1 | Nc1nc([O-])c2c(n1)n([C@H]1O[C@@H](COP(=O)(O)O)[C@H](O)[C@@H]1O)c[n+]2Cc1ccc(-c2ccccc2F)cc1 | 410
2 | Nc1nc([O-])c2c(n1)n([C@H]1O[C@@H](COP(=O)(O)O)[C@H](O)[C@@H]1O)c[n+]2Cc1cccc(OCc2ccccc2)c1 | 580
3 | CO[C@H]1[C@@H](O)[C@H](COP(=O)(O)O)O[C@@H]1n1c[n+](CCOc2ccc(Cl)cc2)c2c([O-])nc(N)nc21 | 160
4 | Nc1nc([O-])c2c(n1)n([C@H]1O[C@@H](COP(=O)(O)O)[C@H](O)[C@@H]1O)c[n+]2Cc1cccc(Oc2ccccc2)c1 | 220
5 | Nc1nc([O-])c2c(n1)n([C@H]1O[C@@H](COP(=O)(O)O)[C@H](O)[C@@H]1O)c[n+]2Cc1ccc(-c2ccccc2)cc1 | 300

These reach a lower Kd. Values come first.

Row | Kd [nM] | SMILES
6 | 110 | Nc1nc([O-])c2c(n1)n([C@H]1O[C@@H](COP(=O)(O)O)[C@H](O)[C@@H]1O)c[n+]2Cc1ccc(-c2ccccc2)c(Cl)c1
7 | 30 | Nc1nc([O-])c2c(n1)n([C@H]1O[C@@H](COP(=O)(O)O)[C@H](O)[C@@H]1O)c[n+]2Cc1ccccc1CS(=O)(=O)c1ccccc1
